Results published in US12497405B2, “Bicyclic heterocycle compounds methods of use thereof for the treatment of herpes viruses” (Merck Sharp & Dohme LLC, priority 2019, dated 2025).
Like-named read-outs stand apart in the source and are kept apart here.

How the values were obtained:
Assay type in all cases: cell-based
[1] = test system: CMV; experiment: Viral qPCR assay, CMV; conditions: infected cells, viral genome copies by qPCR normalized to PPIA, read-out: CMV Cell EC50
Experimental: (§1) MRC5 cells, Vero cells, and MeWo cells were obtained from ATCC, and were maintained at 37° C./5% CO2/90% relative humidity in Minimal Essential Medium with 10% fetal bovine serum, […] L-glutamine, 100 units/ml penicillin and 100 ug/ml streptomycin. Assay plates were prepared by dispensing compounds dissolved in DMSO into wells of 384 well collagen-coated plates using an ECHO acoustic dispenser. Each test compound was tested in a 10-point, serial 3-fold dilution. Controls included uninfected cells and infected cells treated only with DMSO. Assays were initiated by mixing selected cells, in suspension, with virus, and dispensing 50 μl/well infected cells to pre-plated compounds. Plates were incubated at 37° C./5% CO2/90% relative humidity for ˜72 hrs to permit genomic replication, and infected cells were lysed by the addition of an equal volume of lysis buffer (10 mM Tris-HCl, pH8, 50 mM KCl, 2 mM MgCl2, 0.45% NP-40, 0.45% Tween-20, and 100 µg/ml proteinase K). An aliquot of the lysate was then transferred to a 384-well PCR plate and incubated at 56° C. for 1 hour, and then at 95° C. for 10 minutes. Levels of the selected viral gene and of the cellular control, PPIA, were measured in separate 10 μl qPCR assays using TaqMan® Gene Expression Master Mix (Applied Biosystems), and an 7900HT Fast Real-Time PCR System with 384-Well Block Module. 7-point, serial 10-fold dilutions of a plasmid standard were run on each plate to generate a standard curve, and genome copies numbers were calculated by plotting experimental Ct onto linear regression of the standard curve. Viral genome copy numbers were normalized by cellular control copy number, and compound effects were normalized to the window defined by the controls. Calculated % effects were fit using a 4-parameter algorithm, and EC50 was reported.

[2] = test system: HSV1; experiment: Viral qPCR assay, HSV1; conditions: infected cells, viral genome copies by qPCR normalized to PPIA, read-out: HSV1 Cell EC50
Experimental: as §1

[3] = test system: HSV2; experiment: Viral qPCR assay, HSV2; conditions: infected cells, viral genome copies by qPCR normalized to PPIA, read-out: HSV2 Cell EC50
Experimental: as §1

## O=C1OC[C@@H]2C[C@@H](Oc3cc4c(=O)n(Cc5ccc(Cl)cc5)c(OC5CCC(O)CC5)nc4cc3-c3cnn(C(F)F)c3)CCN12 (single isomer, unassigned) [Example 141]
[1]; ~72 hrs
  EC50: 205 nM
[2]; Human alphaherpesvirus 1, 72 h
  EC50: 258 nM
[3]; Human alphaherpesvirus 2, 72 h
  EC50: 184 nM

## O=C1OC[C@@H]2C[C@@H](Oc3cc4c(=O)n(Cc5ccc(Cl)cc5)c(OC5CCC(O)CC5)nc4cc3-c3cnn(C(F)F)c3)CCN12 (single isomer, unassigned) [Example 143]
[1]; ~72 hrs
  EC50: 95 nM
[2]; ~72 hrs
  EC50: 213 nM
[3]; ~72 hrs
  EC50: 181 nM

## Cc1nc2cc(-c3cc4n(n3)C(C(F)(F)F)CN(C)C4)c(O[C@H]3CCN4C(=O)OC[C@@H]4C3)cc2c(=O)n1Cc1ccc(Cl)cc1 (single isomer, unassigned) [Example 151]
[1]; Human betaherpesvirus 5, 72 h
  EC50: 178 nM
[2]; Human alphaherpesvirus 1, 72 h
  EC50: 233 nM
[3]; Human alphaherpesvirus 2, 72 h
  EC50: 176 nM

## Cc1nc2cc(-c3cc4n(n3)C(C(F)(F)F)CN(C)C4)c(O[C@H]3CCN4C(=O)OC[C@@H]4C3)cc2c(=O)n1Cc1ccc(Cl)cc1 (single isomer, unassigned) [Example 152]
[1]; ~72 hrs
  EC50: 159 nM
[2]; ~72 hrs
  EC50: 231 nM
[3]; ~72 hrs
  EC50: 226 nM

## Cc1nc2cc(-c3cc4ccccn4n3)c(O[C@H]3CCN4C(=O)OC[C@@H]4C3)cc2c(=O)n1Cc1ccc(Cl)cc1 [Example 15]
[1]; Human betaherpesvirus 5, 72 h
  EC50: 60 nM
[2]; Human alphaherpesvirus 1, 72 h
  EC50: 74 nM
[3]; Human alphaherpesvirus 2, 72 h
  EC50: 41 nM

## Cc1nc2cc(-c3cn4ccnc4s3)c(O[C@H]3CCN4C(=O)OC[C@@H]4C3)cc2c(=O)n1Cc1ccc(Cl)cc1 [Example 16]
[1]; Human betaherpesvirus 5, 72 h
  EC50: 33 nM
[2]; Human alphaherpesvirus 1, 72 h
  EC50: 42 nM
[3]; Human alphaherpesvirus 2, 72 h
  EC50: 18 nM

## Cc1nc2nc(-c3ccn(C(F)F)n3)c(O[C@H]3CCN4C(=O)OC[C@@H]4C3)cc2c(=O)n1Cc1ccc(Cl)cc1 [Example 20]
[1]; Human betaherpesvirus 5, 72 h
  EC50: 117 nM
[2]; Human alphaherpesvirus 1, 72 h
  EC50: 247 nM
[3]; Human alphaherpesvirus 2, 72 h
  EC50: 209 nM

## O=C1OC[C@@H]2C[C@@H](Oc3cc4c(=O)n(Cc5ccc(Cl)cc5)cnc4nc3-c3cnco3)CCN12 [Example 37]
[1]; Human betaherpesvirus 5, 72 h
  EC50: 20 nM
[2]; Human alphaherpesvirus 1, 72 h
  EC50: 19 nM
[3]; Human alphaherpesvirus 2, 72 h
  EC50: 11 nM

## Cc1nc2cc(-c3ccc4ncoc4c3)c(O[C@H]3CCN4C(=O)OC[C@@H]4C3)cc2c(=O)n1Cc1ccc(Cl)cc1 [Example 89]
[1]; Human betaherpesvirus 5, 72 h
  EC50: 375 nM
[2]; Human alphaherpesvirus 1, 72 h
  EC50: 436 nM
[3]; Human alphaherpesvirus 2, 72 h
  EC50: 273 nM

## Cc1nc2cc(-c3cn4ccncc4n3)c(O[C@H]3CCN4C(=O)OC[C@@H]4C3)cc2c(=O)n1Cc1ccc(Cl)cc1 [Example 91]
[1]; Human betaherpesvirus 5, 72 h
  EC50: 479 nM
[2]; Human alphaherpesvirus 1, 72 h
  EC50: 527 nM
[3]; Human alphaherpesvirus 2, 72 h
  EC50: 602 nM

## Cc1nn(C(F)F)cc1-c1cc2nc(C)n(Cc3ccc(Cl)cc3)c(=O)c2cc1O[C@H]1CCN2C(=O)OC[C@@H]2C1 [Example 92]
[1]; Human betaherpesvirus 5, 72 h
  EC50: 379 nM
[2]; Human alphaherpesvirus 1, 72 h
  EC50: 796 nM
[3]; Human alphaherpesvirus 2, 72 h
  EC50: 506 nM

## COc1ncc(-c2cc3nc(C)n(Cc4ccc(Cl)cc4)c(=O)c3cc2O[C@H]2CCN3C(=O)OC[C@@H]3C2)c(C)n1 [Example 93]
[1]; Human betaherpesvirus 5, 72 h
  EC50: 1430 nM
[2]; Human alphaherpesvirus 1, 72 h
  EC50: 2590 nM
[3]; Human alphaherpesvirus 2, 72 h
  EC50: 3380 nM

## COc1ncncc1-c1cc2nc(C)n(Cc3ccc(Cl)cc3)c(=O)c2cc1O[C@H]1CCN2C(=O)OC[C@@H]2C1 [Example 94]
[1]; Human betaherpesvirus 5, 72 h
  EC50: 1470 nM
[2]; Human alphaherpesvirus 1, 72 h
  EC50: 2410 nM
[3]; Human alphaherpesvirus 2, 72 h
  EC50: 1880 nM

## Cc1nc2cc(-c3cnc4nccn4c3)c(O[C@H]3CCN4C(=O)OC[C@@H]4C3)cc2c(=O)n1Cc1ccc(Cl)cc1 [Example 96]
[1]; Human betaherpesvirus 5, 72 h
  EC50: 2060 nM
[2]; Human alphaherpesvirus 1, 72 h
  EC50: 2920 nM
[3]; Human alphaherpesvirus 2, 72 h
  EC50: 3280 nM

## Cc1nc2cc(-c3cc4cnccn4c3)c(O[C@H]3CCN4C(=O)OC[C@@H]4C3)cc2c(=O)n1Cc1ccc(Cl)cc1 [Example 99]
[1]; Human betaherpesvirus 5, 72 h
  EC50: 272 nM
[2]; Human alphaherpesvirus 1, 72 h
  EC50: 118 nM
[3]; Human alphaherpesvirus 2, 72 h
  EC50: 77 nM

## Cc1nc2cc(-c3cc4ncccn4n3)c(O[C@H]3CCN4C(=O)OC[C@@H]4C3)cc2c(=O)n1Cc1ccc(Cl)cc1 [Example 100]
[1]; Human betaherpesvirus 5, 72 h
  EC50: 63 nM
[2]; Human alphaherpesvirus 1, 72 h
  EC50: 86 nM
[3]; Human alphaherpesvirus 2, 72 h
  EC50: 43 nM

## Cc1nc2cc(-c3nc4cnccn4n3)c(O[C@H]3CCN4C(=O)OC[C@@H]4C3)cc2c(=O)n1Cc1ccc(Cl)cc1 [Example 101]
[1]; Human betaherpesvirus 5, 72 h
  EC50: 449 nM
[2]; Human alphaherpesvirus 1, 72 h
  EC50: 223 nM
[3]; Human alphaherpesvirus 2, 72 h
  EC50: 88 nM

## O=C1OC[C@@H]2C[C@@H](Oc3cc4c(=O)n(Cc5ccc(Cl)cc5)c(OCCO)nc4cc3-c3cnn(C(F)F)c3)CCN12 [Example 102]
[1]; Human betaherpesvirus 5, 72 h
  EC50: 135 nM
[2]; Human alphaherpesvirus 1, 72 h
  EC50: 71 nM
[3]; Human alphaherpesvirus 2, 72 h
  EC50: 37 nM

## Cc1nc2cc(-c3nc4ncccn4n3)c(O[C@H]3CCN4C(=O)OC[C@@H]4C3)cc2c(=O)n1Cc1ccc(Cl)cc1 [Example 103]
[1]; Human betaherpesvirus 5, 72 h
  EC50: 83 nM
[2]; Human alphaherpesvirus 1, 72 h
  EC50: 55 nM
[3]; Human alphaherpesvirus 2, 72 h
  EC50: 55 nM
